Measured values from patent US20250101338A1, “BIOMASS DERIVED SURFACE-ACTIVE COMPOSITIONS AND PRODUCTS” (Cambridge Glycoscience Ltd, priority 2021, published 2025).

Assays:
[1] = Dynamic foam tests (Example 69); type: physicochemical; details: 5 mL of 0.5 wt % aqueous solution, 40 cm^3 air bubbled at 17 cm^3/min
Description: The intensity and approximate decay-rate for the foaming behavior of the surface-active compositions in dilute aqueous solution was determined by dosing 5 mL of 0.5 wt % aqueous solution of surface-active composition to a vertically-aligned 50 m plastic serological pipette (“Stripette”). Air (40 cm^3) was bubbled through the surface-active composition solution at a rate of 17 cm^3/min via a syringe pump and the foam height upon complete addition of air recorded. The foam height was also recorded again 5 min after complete addition of air, 10 min after complete addition of air, 15 m after complete addition of air, 30 min after complete addition of air, 1 hour after complete addition of air and finally 2 hours after complete addition of air.

[2] = Water in oil emulsion stability test (Example 65); type: physicochemical; details: 0.5 mL water with 2 wt % substance + 1.5 mL sunflower oil, vortex 30 s, visual inspection
Description: 0.5 mL deionized water containing 2 wt % of the stated inventive or comparative compound was added to 1.5 mL commercial, food-grade sunflower oil, in a sample vial. The vials were each agitated with a IKA Vortex mixture for 30 seconds. The vials were left to stand and inspected visually for emulsion quality after 5 minutes, 1 hour, 4 hours and finally 24 h (FIG. 14 and FIG. 15). […] The results also show an unexpected increase in emulsifying performance for the inventive compositions comprising oligosaccharide mixture-derived surface-active agents (such as example 4-6 compositions) compared with those derived from a single monomeric sugar (xylose) alone (such as example 12 and 13 compositions).

[3] = Relative viscosity, gravity flow time (Example 74); type: physicochemical; details: 10 mL of 10 wt % sodium dodecyl sulfate + 0.3 g NaCl + 0.655 mL of 30 wt % test solution, 27° C., triplicate
Description: The time taken for precisely 3 mL of testing mixture to pass out of the […] by gravity was recorded. The test was repeated in triplicate. Averaged results are depicted in FIG. 20 and table 9. It was unexpected that example 11 composition recorded such high viscosity over example 14 composition, which differs by a slightly smaller alkyl chain (octyl instead of decyl).

[4] = Flash foam generation test (Example 70); type: physicochemical; details: 20 mg in 4 mL deionized water (10 wt % [sic]), 2 mL shaken 30 s in 15 mL tube, duplicate average
Description: 20 mg of each surface-active composition for testing was dissolved in deionized water (4 mL) to give a 10 wt % solution, 2 mL was added to a 15 mL FALCON tube. Each falcon tube was secured in a holder before being vigorously shook for 30 seconds. The initial foam height and structure was noted. The foam height was then noted at 5 min, 10 min, 15 min, 30 min, 45 min, 1 hr and 2 hr after the initial measurement. The experiment was repeated in duplicate. Averaged results are depicted in table 5 and FIG. 11.

[5] = Critical micellular concentration determination (Example 78); type: physicochemical; details: deionized water
Description: Stock solutions were prepared of known weight concentration (range spanning 0.005 wt %-5.000 wt %) of inventive surface-active compositions (by solution of the appropriate weight of example composition in deionized water). For reference, the surface tension of deionized water in the absence of a surface-active composition is 73 mN. […] The surface tensions of the solutions at the concentration of the CMC were also noted. Results are shown in table 10 and graphical results are depicted in FIG. 22.

[6] = Lipophilic substances solubilization test, lemongrass oil (Example 71); type: physicochemical; details: 2 mL of 5 wt % aqueous solution, stepwise addition of 2.5 μL, duplicate
Description: (§1) After each addition, the sample was agitated with a vortex mixture for 60 s and left to stand for 5 min. If no heterogenous phase was observed visually, the oil was said to be fully soluble. If a heterogenous, immiscible biphasic or emulsion was visible, then the saturation limit for that surface-active component was said to have been exceeded. Each surface-active composition was tested in duplicate.

[7] = tested on: Zein; test: Zein solubilization test, irritation potential (Example 68); details: 25 mg zein in 1 mL of 1 wt % active surfactant solution, 30 min, BCA assay, triplicate
Description: Zein is a water-insoluble corn protein, structurally similar to keratin. The ability of a surfactant to solubilize zein is related to irritation potential. The more zein solubilized, the more irritating the product is deemed to be, according to this test. […] The solutions were centrifuged, and the protein concentration in the supernatant determined by BCA assay. Each surfactant was tested in triplicate. Protein content was determined from a bovine serum albumin (BSA) standard curve.

[8] = Lipophilic substances solubilization test, preservative P12 (Example 72); type: physicochemical; details: 2 mL of 5 wt % aqueous solution, stepwise addition of 10 μL, duplicate
Description: as §1, with “heterogenous phase” for “heterogenous, immiscible biphasic”

[9] = Aqueous solubility noted at preparation; type: physicochemical; details: water, room temperature
Description: Solid N-decyl xylosylamine (7.6 g) was suspended in 2-propanol (60 mL) and triethylamine (2 equiv.) then acetic anhydride (1.6 equiv.) was added slowly. Stirring continued at ambient temperature for 10 h. Water (50 mL) was added, and the mixture stirred for 5 min. Dichloromethane (50 mL) was added and the phases separated. The aqueous phase was extracted with additional DCM. The combined organic phase washed with saturated aqueous NH4Cl solution, then the aqueous phase extracted with additional DCM. The combined organic phases were dried over anhydrous magnesium sulfate, filtered, then concentrated under reduced pressure to give a yellow oil. The oil was purified by FCC eluting with MeOH (2-15%) in DCM (120 g normal phase silica cartridge with wet loading). Fractions containing the product were combined and evaporated to dryness to give the desired product (4.1 g, 49%) as a yellow gum. LC-MS (Method A), Rt=1.69 min, [M+H]+=332.2. The gum product can be dissolved in water to form solutions of 50 wt % or greater.
The process was carried out in essentially the same manner as in Example 11 a) step (ii) but using the solid product of Example 11 reaction c) step (i) and the crude product was instead purified by FCC eluting with MeOH (2-13%) in DCM. There were obtained 1.4 g of cream gum product. LC-MS (Method A), Rt=1.87 min, [M+H]^+=360.5.

| Molecule | Time inspected by which the emulsion first appeared dispersed [2] | Average time (for 3 mL to pass out of the stripette by gravity) [3] | Volume of foam after given time ([4]; 0 min) | Volume of foam after given time ([4]; 5 min) | Volume of foam after given time ([4]; 15 min) | Volume of foam after given time ([4]; 30 min) | Volume of foam after given time ([4]; 1 h) | Volume of foam after given time ([4]; 2 h) | Maximum volume of lemongrass oil solubilized [6] | further results |
| --- | --- | --- | --- | --- | --- | --- | --- | --- | --- | --- |
| CCCCCCCCCCCCO[C@@H]1O[C@H](CO)[C@@H](O)[C@H](O)[C@H]1O [Dodecyl Glucoside, reference compound] | 12 h | 4.0 s |  |  |  |  |  |  |  | Volume of foam after given time ([1]; 0 min): 42.3 cm^3; Volume of foam after given time ([1]; 5 min): 42.3 cm^3; Volume of foam after given time ([1]; 15 min): 42.3 cm^3; Volume of foam after given time ([1]; 30 min): 42.3 cm^3; Volume of foam after given time ([1]; 1 h): 42.0 cm^3; Volume of foam after given time ([1]; 2 h): 42.0 cm^3 |
| Lauryl glucoside |  | 1.9 s |  |  |  |  |  |  |  |  |
| CCCCCCCCCCCCOS(=O)(=O)[O-].[Na+] [Sodium dodecyl sulfate, reference compound] | 1 h |  | 15.0 cm^3 | 15.0 cm^3 | 15.0 cm^3 | 15.0 cm^3 | 15.0 cm^3 | 14.0 cm^3 |  |  |
| CCCCCCCCCCCCCCN(C(C)=O)C1OC[C@@H](O)[C@H](O)[C@H]1O (stereo partly shown) [Example 12 composition, N-tetradecyl N-acetyl xylosylamine] | 1 h |  |  |  |  |  |  |  |  |  |
| Cocoamidopropyl betaine |  | 524.0 s |  |  |  |  |  |  |  |  |
| CCCCCCCCCCCCN(C(C)=O)C1O[C@H](CO)[C@@H](O[C@@H]2O[C@H](CO)[C@@H](O)[C@H](O)[C@H]2O)[C@H](O)[C@H]1O (stereo partly shown) [Example 23 composition, N-dodecyl N-acetyl cellobiosylamine] |  |  | 3.5 cm^3 | 3.5 cm^3 | 3.5 cm^3 | 3.0 cm^3 | 2.8 cm^3 | 2.5 cm^3 |  | Solution Surface tension at CMC [5]: 45 mN; CMC ([5]; from surface tension at 0.005-5.000 wt %): 0.03 wt %; Volume of foam after given time ([1]; 0 min): 38.5 cm^3; Volume of foam after given time ([1]; 5 min): 4.0 cm^3; Volume of foam after given time ([1]; 15 min): 4.0 cm^3; Volume of foam after given time ([1]; 30 min): 4.0 cm^3; Volume of foam after given time ([1]; 1 h): 3.0 cm^3; Volume of foam after given time ([1]; 2 h): 3.0 cm^3 |
| CCCCCCCCN(C(C)=O)C1OC[C@@H](O)[C@H](O)[C@H]1O (stereo partly shown) [Example 14 composition, N-octyl N-acetyl xylosylamine] | 0.083 h | 10.0 s |  |  |  |  |  |  | 5.0 µL |  |
| CCCCCCCCCCO[C@@H]1O[C@H](CO)[C@@H](O)[C@H](O)[C@H]1O [Decyl glucoside, reference compound] | 24 h |  | 12.0 cm^3 | 12.0 cm^3 | 11.8 cm^3 | 11.5 cm^3 | 11.5 cm^3 | 11.0 cm^3 | 2.5 µL | Resulting zein concentration solubilized [7]: 1129 µg/mL; Maximum volume of preservative P12 solubilized [8]: 40 µL |
| CCCCCCCCCCCCN(C(C)=O)C1OC[C@@H](O)[C@H](O)[C@H]1O (stereo partly shown) [Example 13 composition, N-dodecyl N-acetyl xylosylamine] | 1 h |  |  |  |  |  |  |  | 5.0 µL | Aqueous solubility (in words) [9]: only sparingly soluble |
| O=C[C@H](O)[C@@H](O)[C@H](O)CO [Xylose, reference compound] | <0.083 h |  |  |  |  |  |  |  |  |  |
